Reference: article PMC6065180, “An allosteric propofol-binding site in kinesin disrupts kinesin-mediated processive movement on microtubules” (The Journal of Biological Chemistry, 2018)

Legend:
KIF3BB = biological target: T1, KIF3BB (Mus musculus, UniProt Q61771); experiment: Qdot single-molecule TIRF motility; assay type: biochemical; conditions: 10 μM AziPm; 1 mM MgATP, X-rhodamine microtubules, paclitaxel, 5% DMSO, pH 6.9, 25 °C
T1 construct: gene Kif3b; KIF3B Met1-Leu369, C-terminal EB1 dimerization motif, TEV site and His8 tag kept; E. coli; engineered homodimer, Mr 48,011 per chain
T1 sequence (Q61771 1-369): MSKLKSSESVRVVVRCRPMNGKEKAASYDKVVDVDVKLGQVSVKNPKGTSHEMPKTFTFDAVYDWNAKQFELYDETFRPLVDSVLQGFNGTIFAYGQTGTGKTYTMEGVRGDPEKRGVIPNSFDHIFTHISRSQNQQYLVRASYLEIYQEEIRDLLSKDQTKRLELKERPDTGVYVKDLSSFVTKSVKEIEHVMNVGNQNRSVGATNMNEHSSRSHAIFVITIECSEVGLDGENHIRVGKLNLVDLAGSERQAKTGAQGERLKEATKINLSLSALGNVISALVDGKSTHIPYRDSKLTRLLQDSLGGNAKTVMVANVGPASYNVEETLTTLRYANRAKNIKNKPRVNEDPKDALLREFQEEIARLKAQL

KIF3CC = biological target: T2, KIF3CC (Mus musculus, UniProt O35066); experiment: Qdot single-molecule TIRF motility; assay type: biochemical; conditions: 10 μM AziPm; 1 mM MgATP, X-rhodamine microtubules, paclitaxel, 5% DMSO, pH 6.9, 25 °C
T2 construct: gene Kif3c; KIF3C Met1-Leu396, C-terminal EB1 dimerization motif, TEV site and His8 tag kept; E. coli; engineered homodimer
T2 sequence (O35066 1-396): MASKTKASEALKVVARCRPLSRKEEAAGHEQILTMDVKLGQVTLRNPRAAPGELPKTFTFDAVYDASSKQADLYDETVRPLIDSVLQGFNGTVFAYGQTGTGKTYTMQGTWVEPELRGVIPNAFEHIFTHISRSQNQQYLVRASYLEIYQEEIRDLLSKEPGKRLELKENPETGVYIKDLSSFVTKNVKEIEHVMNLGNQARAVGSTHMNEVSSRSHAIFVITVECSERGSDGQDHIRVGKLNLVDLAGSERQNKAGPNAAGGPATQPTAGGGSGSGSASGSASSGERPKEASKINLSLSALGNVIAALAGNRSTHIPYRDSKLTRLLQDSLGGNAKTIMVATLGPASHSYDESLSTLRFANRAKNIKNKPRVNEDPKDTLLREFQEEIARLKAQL

## CC(C)c1ccc(C2(C(F)(F)F)N=N2)cc1O [AziPm, meta-azipropofol]
KIF3BB
  % decrease in run length at 10 μM: ~ 50%
KIF3CC
  % decrease in run length at 10 μM: ~ 35%
